Test results reported in article PMC7582770, “Synthesis of “All-Cis” Trihydroxypiperidines from a Carbohydrate-Derived Ketone: Hints for the Design of New β-Gal and GCase Inhibitors” (Molecules, 2020).
Changes are numbered by the printed parent chain. Where two headings read alike, the source gives them in different places. Marks after values point to notes of the source that are not given here.

Tests used:
[1] = test system: mutant β-Gal in GM1-gangliosidosis patient fibroblasts; settings: cited from earlier work
human lysosomal β-Gal = settings: cited from earlier work
[2] = target: T1, human lysosomal β-galactosidase (β-Gal) (Homo sapiens, UniProt P16278); test: β-Gal inhibition in human leukocyte homogenates; format: biochemical; settings: compounds 1 mM; human leukocytes extracts
T1 construct: in leukocytes isolated from healthy donors (controls); endogenous in cells; host or cells: human leukocytes from healthy donors, disrupted by sonication (crude homogenate)
T1 sequence (P16278 29-677): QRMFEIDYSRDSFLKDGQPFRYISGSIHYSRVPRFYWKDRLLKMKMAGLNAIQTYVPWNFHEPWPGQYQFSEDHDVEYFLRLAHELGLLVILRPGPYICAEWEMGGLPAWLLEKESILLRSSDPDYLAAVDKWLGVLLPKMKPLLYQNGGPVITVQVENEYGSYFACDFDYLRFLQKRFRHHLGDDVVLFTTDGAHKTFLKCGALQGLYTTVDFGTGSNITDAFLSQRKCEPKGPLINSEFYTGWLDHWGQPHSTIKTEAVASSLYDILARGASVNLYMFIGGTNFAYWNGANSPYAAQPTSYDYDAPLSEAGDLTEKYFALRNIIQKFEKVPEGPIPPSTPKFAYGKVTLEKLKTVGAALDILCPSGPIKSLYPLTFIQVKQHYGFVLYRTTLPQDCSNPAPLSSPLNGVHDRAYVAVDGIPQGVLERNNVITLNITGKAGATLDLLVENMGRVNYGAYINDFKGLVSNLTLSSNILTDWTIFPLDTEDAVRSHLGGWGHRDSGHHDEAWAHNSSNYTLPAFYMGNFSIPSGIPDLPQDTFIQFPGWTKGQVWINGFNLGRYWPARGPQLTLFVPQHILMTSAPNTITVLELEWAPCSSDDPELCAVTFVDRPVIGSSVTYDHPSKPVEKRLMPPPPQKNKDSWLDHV
Method: (§1) The new compounds were screened at 1 mM concentration towards β-galactosidase (β-Gal) and β-glucosidase (GCase) in leukocytes isolated from healthy donors (controls). Isolated leukocytes were disrupted by sonication, and a Micro BCA Protein Assay Kit (Sigma–Aldrich, St. Louis, MO, USA) was used to determine the total protein amount for the enzymatic assay, according to the manufacturer’s instructions.
β-Gal activity was measured in a flat-bottomed 96-well plate. Azasugar solution (3 μL), 4.29 μg/μL leukocytes homogenate 1:10 (7 μL), and substrate 4-methylumbelliferyl β-D-galactopyranoside (1.47 mM, 20 μL, Sigma–Aldrich) in acetate buffer (0.1 M, pH 4.3) containing NaCl (0.1 M) and sodium azide (0.02%) were incubated at 37 °C for 1 h. The reaction was stopped by addition of sodium carbonate (200 μL; 0.5 M, pH 10.7) containing Triton X-100 (0.0025%), and the fluorescence 4-methylumbelliferone released by β-galactosidase activity was measured in SpectraMax M2 Microplate Reader (λex = 365 nm and λem = 435 nm; Molecular Devices LLC, San Jose, CA, US). Inhibition is given with respect to the control (without azasugar). Data are mean SD (n = 3).

[3] = target: T2, human lysosomal β-glucosidase (GCase) (Homo sapiens, UniProt P04062); test: GCase inhibition in human leukocyte homogenates; format: biochemical; settings: compounds 1 mM; human leukocytes extracts
T2 construct: in leukocytes isolated from healthy donors (controls); endogenous in cells; host or cells: human leukocytes from healthy donors, disrupted by sonication (crude homogenate)
T2 sequence (P04062 40-536): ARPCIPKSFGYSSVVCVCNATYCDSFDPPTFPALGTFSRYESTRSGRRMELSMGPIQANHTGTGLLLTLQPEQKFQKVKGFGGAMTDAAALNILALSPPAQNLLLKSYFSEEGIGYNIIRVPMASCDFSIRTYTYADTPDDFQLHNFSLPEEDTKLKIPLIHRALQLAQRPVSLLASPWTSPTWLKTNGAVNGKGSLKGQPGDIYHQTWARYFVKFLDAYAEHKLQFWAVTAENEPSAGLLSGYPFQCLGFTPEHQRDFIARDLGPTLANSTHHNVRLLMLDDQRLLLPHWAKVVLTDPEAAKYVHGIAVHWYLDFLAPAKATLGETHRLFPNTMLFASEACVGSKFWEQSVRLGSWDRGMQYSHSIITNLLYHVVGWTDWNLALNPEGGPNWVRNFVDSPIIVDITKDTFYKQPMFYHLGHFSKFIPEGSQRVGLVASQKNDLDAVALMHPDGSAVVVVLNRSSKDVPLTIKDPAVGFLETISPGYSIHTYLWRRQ
Method: as §1
GCase activity was measured in a flat-bottomed 96-well plate. Compound solution (3 µL), 4.29 µg/µL leukocytes homogenate (7 µL), and substrate 4-methylumbelliferyl-β-D-glucoside (3.33 mM, 20 µL, Sigma–Aldrich Chemie Gmbh, Munich, Germany)) in citrate/phosphate buffer (0.1:0.2, M/M, pH 5.8) containing sodium taurocholate (0.3%) and Triton X-100 (0.15%) at 37 °C were incubated for 1 h. The reaction was stopped by addition of sodium carbonate (200 µL; 0.5 M, pH 10.7) containing Triton X-100 (0.0025%), and the fluorescence of 4-methylumbelliferone released by β-glucosidase activity was measured in SpectraMax M2 Microplate Reader (λex = 365 nm and λem = 435 nm; Molecular Devices LLC, San Jose, CA, US). Percentage GCase inhibition is given with respect to the control (without compound). Data are mean SD (n = 3). For compounds showing GCase inhibitory activity higher than 80% at 1 mM concentration, the IC50 values were determined by measuring the initial hydrolysis rate with 4-methylumbelliferyl-β-D-glucoside (3.33 mM). Data obtained were fitted by using the appropriate equation (for more details, see the Supplementary Materials).
IC50 for compounds 9, 10, 12 and 21 towards human lysosomal β-glucosidase The IC50 values of inhibitors against β-glucosidase were determined by measuring the initial hydrolysis rate with 4-methylumbelliferyl-β-D-glucoside (3.33 mM). Data obtained were fitted to the following equation using the Origin Microcal program. where Vi/Vo, represent the ratio between the activity measured in the presence of the inhibitor (Vi) and the activity of the control without the inhibitor (V0), “x” the inhibitor concentration, Max and Min, the maximal and minimal enzymatic activity observed, respectively.
Figure S48: IC of compound 9 towards GCase
Figure S49: IC50 of compound 10 towards GCase
(also on this page, place not known: Min x MinMax Vo Vi slope + […] […] […] […] […] […]+ −= 1 be tween (V i) (V 0), IC50) […]

[4] = target: T2, human lysosomal β-glucosidase (GCase); settings: human leukocytes extracts, cited from earlier work; for GCase Inhibition (%): compounds 1 mM
[5] = target: T3, GCase in fibroblasts with the N370S/RecNcil mutation (Homo sapiens, UniProt P04062, N409S); set-up: method as in PMID 26376302; settings: at 100 µM; cited from earlier work
T3 construct: Fibroblasts with the N370S/RecNcil mutation from patients with Gaucher disease; host or cells: human Gaucher patient fibroblasts, N370S/RecNciI
T3 sequence (P04062 40-536 N409S): T2 sequence (P04062 40-536) with N370S

[6] = target: T1, human lysosomal β-galactosidase (β-Gal); set-up: method as in PMID 32200326; settings: compounds 1 mM; human leukocytes extracts; cited from earlier work

With CCCCCCCCCN1C[C@H](O)[C@@H](O)[C@@H](O)[C@H]1CO [compound 2, N-nonyl-DGJ] as the molecule, how does the “rescue of intracellular activity of mutant β-Gal in GM1-gangliosidosis patient fibroblasts” value [1] read?
Its value is “able to rescue the intracellular activity of mutant β-Gal”.

With OC[C@H]1CNC[C@@H](O)[C@H]1O [compound 3, 4-epi-isofagomine] as the molecule, how does the IC50 (human lysosomal β-Gal) read?
The IC50 was 1000 nM.

For CCCCC[C@H]1NC[C@@H](O)[C@@H](O)[C@H]1CO [compound 4], which IC50 (human lysosomal β-Gal) is on record?
Its IC50 is 10 nM.

What about the “rescue of mutant β-Gal activity in fibroblasts from GM1-gangliosidosis patients” value [1] of the same molecule?
The value was “able to rescue mutant β-Gal activity”.

For CCCCCCCCC[C@H]1NC[C@@H](O)[C@@H](O)[C@H]1CO [compound 5], which IC50 (human lysosomal β-Gal) is on record?
The IC50 was 0.4 nM.

What about the “rescue of mutant β-Gal activity in fibroblasts from GM1-gangliosidosis patients” value [1] of the same molecule?
Its value is “able to rescue mutant β-Gal activity”.

Which “increase of β-Gal activity in GM1 gangliosidosis patient fibroblasts” value [1] does the source give for O[C@@H]1[C@H](O)[C@H](O)CN[C@H]1C[C@H](O)c1ccccc1 [compound 6] here?
Its value is 2–6 fold.

Which “increase of β-Gal activity in GM1 gangliosidosis patient fibroblasts” value [1] does the source give for CCCCCCCC[C@@H](O)C[C@@H]1NC[C@@H](O)[C@@H](O)[C@H]1O [compound 7] here?
Its value is 2–6 fold.

Which inhibition at 1000 µM [2] does the source give for O[C@@H]1CNC[C@@](O)(CCc2ccccc2)[C@@H]1O [compound 11, (3S, 4R, 5R)-3,4,5-Trihydroxy-3-(2-Phenylethyl)-Piperidine] here?
Its inhibition at 1000 µM is 0%.

What about the inhibition at 1000 µM [3] of the same molecule?
Its inhibition at 1000 µM is 36%.

Which results are given for CC[C@]1(O)CNC[C@@H](O)[C@H]1O [compound 13, (3S, 4R, 5R)-3-Ethyl-3,4,5-Trihydroxypiperidine]?
inhibition at 1000 µM [2]: 3%; inhibition at 1000 µM [3]: 30%

For O[C@@H]1CNC[C@@](O)(CCc2ccsc2)[C@@H]1O [compound 14, (3S, 4R, 5R)-3,4,5-Trihydroxy-3-((2-(3-Thienyl) Ethyl))-Piperidine], which inhibition at 1000 µM [2] is on record?
The inhibition at 1000 µM was 16%.

What about the inhibition at 1000 µM [3] of the same molecule?
Its inhibition at 1000 µM is 9%.

And the melting point?
Its melting point is 73 to 75 °C.

With CN(C)c1ccc(CC[C@]2(O)CNC[C@@H](O)[C@H]2O)cc1 [compound 15] as the molecule, how does the inhibition at 1000 µM [2] read?
Its inhibition at 1000 µM is 6%.

What about the inhibition at 1000 µM [3] of the same molecule?
The inhibition at 1000 µM was 6%.

What does the source list for O[C@@H]1CNC[C@@](O)(C#Cc2ccccc2)[C@@H]1O [compound 32, (3S, 4R, 5R)-3,4,5-Trihydroxy-3-(Phenylethynyl)-Piperidine]?
β-Gal Inhibition (%) [2]: 16%; inhibition at 1000 µM [3]: 25%

With CCCCCCC#C[C@]1(O)CNC[C@@H](O)[C@H]1O [compound 33, (3S, 4R, 5R)-3,4,5-Trihydroxy-3-(oct-1-yn-1-yl)-Piperidine] as the molecule, how does the inhibition at 1000 µM [2] read?
Its inhibition at 1000 µM is 4%.

And the inhibition at 1000 µM [3]?
The inhibition at 1000 µM was 65%.

Which results are given for CCCCCCCCN[C@H]1CNC[C@@H](O)[C@H]1O [compound 36]?
inhibition at 1000 µM [2]: 15%; GCase Inhibition (%) [4]: 93 ^c %; IC50 [4]: 40000 ± 3000 nM; rescue of GCase activity [5]: 1.5 fold

Which results are given for CCCCCCCC[C@H]1NC[C@@H](O)[C@@H](O)[C@@H]1O [compound 37]?
β-Gal Inhibition (%) [6]: 14 ^d %; GCase Inhibition (%) [4]: 100 ^d %; IC50 [4]: 29000 ± 2000 nM

Which results are given for CCCCCCCCCCCC[C@H]1NC[C@@H](O)[C@@H](O)[C@@H]1O [compound 38]?
β-Gal Inhibition (%) [6]: 5 ^d %; GCase Inhibition (%) [4]: 100 ^d %; IC50 [4]: 1500 ± 100 nM

With CCCCCCCC[C@@H]1NC[C@@H](O)[C@@H](O)[C@@H]1O [compound 39] as the molecule, how does the “β-Gal Inhibition (%)” value [6] read?
The value was 31 ^d %.

And the “GCase Inhibition (%)” value [4]?
The value was 80 ^d %.

What about the IC50 [4] of the same molecule?
The IC50 was 94000 ± 5000 nM.
